# Results: paper PMC6232370, “Metabolism and Bioactivation of Corynoline With Characterization of the Glutathione/Cysteine Conjugate and Evaluation of Its Hepatotoxicity in Mice” (Frontiers in Pharmacology, 2018)
# Experiments:
# [1] = Tissue distribution of CRL in mice; format: in vivo; details: 250 mg/kg intragastric
# Method: Thirty BALB/c male mice were fasted overnight but allowed access to water before drug administration. Five groups of mice (six mice per group) were intragastric administered a single dose of 250 mg/kg CRL. The mice in five groups were euthanized by decapitation at pre-dose, 0.5, 2, 4, and 8 h after dosing, respectively. Tissues including heart, liver, spleen, lung, kidney, and brain were dissected and washed with saline, then were blotted with filter paper and weighed accurately. The tissue samples were homogenized in ice-cold saline (1:3, w/v, g/mL). These tissue homogenates were then stored at −20°C and allowed to thaw at room temperature and vortex-mixed before processing. A 200 μL tissue sample was mixed with 5 μL IS solution (donepezil, 500 ng/mL). The mixture was deproteinized with 800 μL of acetonitrile, vortexed for 5 min, and then centrifuged at 17,000 × g for 10 min. An aliquot of 5 μL supernatant was then used for quantifying the content of CRL in each tissue by the LC-MS/MS.
# BALB/c male mice = assay: Hepatotoxicity study in mice; format: in vivo
# Method: Thirty-six BALB/c male mice were randomly divided into four groups (nine animals per group) including control group, low (125 mg/kg), middle (250 mg/kg), and high (500 mg/kg) three dosages group. CRL was dissolved firstly in DMSO and then prepared in 0.5% carboxymethyl cellulose sodium (CMC-Na) to make a suspension of 10, 20, and 30 mg/mL and the final concentration of DMSO in the suspension was no more than 5%. CRL was administered to the mice in different groups through oral gavage. Mice in control group were given equal volume 0.5% CMC-Na (contained 5% DMSO) solution with high dosage group. Blood samples were drawn from the orbital vein using cannulation under anesthesia at 24 h after oral administration. After centrifugation at 2,000 g for 15 min, the serum samples were stored at −20°C until analysis. Then mice were euthanized by decapitation after blood collection. Samples of liver were obtained and one part of which was fixed in 10% formaldehyde for observing histological change with optical microscope. The content of ALT and AST in mice serum was detected according the operation instruction of the kit.
# [2] = test system: human A549, SK-OV-3, SK-MEL-2, and HCT15 tumor cells; set-up: method as in Choi et al. (2007); details: ref Choi et al. (2007), read-out: 50% growth inhibition values; cited from earlier work
# [3] = mice, 24 h after oral administration of 125, 250, and 500 mg/kg, P > 0.05
smiles,measurement,setting,value
"CN1Cc2c(ccc3c2OCO3)[C@@]2(C)[C@@H](O)Cc3cc4c(cc3[C@@H]12)OCO4 [CRL, Corynoline]",Blood–brain barrier passage,[1],could traverse the blood–brain barrier
same,Highest concentration level in brain,"[1]; single dose, mean ± SD",40.53 ± 20.50 µg/g
same,Highest concentration level in kidney,"[1]; single dose, mean ± SD",68.73 ± 46.89 µg/g
same,Highest concentration level in liver,"[1]; single dose, mean ± SD",92.91 ± 65.11 µg/g
same,Highest concentration level in lung,"[1]; single dose, mean ± SD",27.27 ± 22.17 µg/g
same,Highest concentration level in spleen,"[1]; single dose, mean ± SD",25.22 ± 18.67 µg/g
same,concentration at 2 h,"[1]; male, BALB/c, mouse, plasma, oral, at 2 h post dosing, mean ± SD",18400 ± 14200 ng/mL
same,Tmax,"[1]; male, BALB/c, mouse, tissues (heart, liver, spleen, lung, kidney, brain), po, tissues, post dosing, read-out: Time to reach the maximum concentration",2 h
same,Histopathological examination of the liver,"BALB/c male mice; mice, 125, 250, and 500 mg/kg oral, 24 h",no pathological changes
same,ALT in serum and livers compared with the control group,BALB/c male mice; [3],not significantly different
same,AST in serum and livers compared with the control group,BALB/c male mice; [3],not significantly different
same,Abnormal behaviors compared with control group,"BALB/c male mice; mice, drug treatment groups 125–500 mg/kg oral, at about 10 min after administration, more pronounced with increasing dosage",lying on the bedding and shivering
same,Body temperature of most mice,"BALB/c male mice; mice, drug treatment groups 125–500 mg/kg oral, more pronounced with increasing dosage",lower than normal
same,Hepatotoxicity / acute liver injury,"BALB/c male mice; mice, experimental dosage 125–500 mg/kg oral",no obvious hepatotoxicity
same,Dead mice after drug administration (all dosage groups),"BALB/c male mice; mouse, in vivo",three of them were dead
same,Dead mice in high dosage group,"BALB/c male mice; mouse, in vivo",two mice
same,Dead mice in middle dosage group,"BALB/c male mice; mouse, in vivo",one mouse
same,IC50,[2],5.27 to 6.14 µM
